Measurements as given in patent US10106538B2, “Inhibitors of protein kinases” (PRINCETON DRUG DISCOVERY INC, priority 2015, dated 2018).

What was measured:
Assay in all cases: Off-chip Mobility Shift Assay (MSA) kinase inhibition
Type in all cases: biochemical
BMX = biological target: T1, BMX (Homo sapiens, UniProt P51813); conditions: inhibitor concentration 0.1 μM
T1 construct: purchased Carna Biosciences
T1 sequence (P51813 1-675): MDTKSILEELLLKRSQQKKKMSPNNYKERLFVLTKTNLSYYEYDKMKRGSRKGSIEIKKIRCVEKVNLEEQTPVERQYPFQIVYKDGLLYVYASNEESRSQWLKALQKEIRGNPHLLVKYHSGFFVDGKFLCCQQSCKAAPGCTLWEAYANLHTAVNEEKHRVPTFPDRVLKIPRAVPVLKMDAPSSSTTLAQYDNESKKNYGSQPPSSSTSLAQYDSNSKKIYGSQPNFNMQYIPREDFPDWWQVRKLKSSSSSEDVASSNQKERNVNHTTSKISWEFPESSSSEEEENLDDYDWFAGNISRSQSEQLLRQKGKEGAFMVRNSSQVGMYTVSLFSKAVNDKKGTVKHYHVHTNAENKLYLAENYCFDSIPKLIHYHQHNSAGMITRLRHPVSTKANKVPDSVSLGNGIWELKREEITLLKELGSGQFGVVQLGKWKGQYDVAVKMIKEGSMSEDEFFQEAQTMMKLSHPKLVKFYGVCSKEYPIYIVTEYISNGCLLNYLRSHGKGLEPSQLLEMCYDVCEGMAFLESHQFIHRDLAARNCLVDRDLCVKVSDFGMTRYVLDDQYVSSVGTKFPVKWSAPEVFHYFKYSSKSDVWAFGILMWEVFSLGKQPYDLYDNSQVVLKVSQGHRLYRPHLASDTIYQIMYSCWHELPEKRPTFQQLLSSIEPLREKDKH
Protocol: (§1) Off-chip Mobility Shift Assay (MSA) by Cama Biosciences, Inc (Natick, Mass.) a used for measuring the kinase activity and inhibition. • 1) The 5 μL of x4 compound solution, 5 μL of x4 Substrate/ATP/Metal solution, and 10 μL of x2 kinase solution were prepared with assay buffer (20 mM HEPES, 0.01% Triton X100, 2 mM DTT, pH 7.5) and mixed and incubated in a well of polypropylene 384 well microplate for 1 or 5 hour(s)* at room temperature.

PKACα = biological target: T2, PKACα (Homo sapiens, UniProt P17612); conditions: inhibitor concentration 0.1 μM
T2 construct: purchased Carna Biosciences, Inc
Protocol: as §1

KDR = biological target: T3, KDR (Homo sapiens, UniProt P35968); conditions: for inhibition at 0.1 µM: inhibitor concentration 0.1 μM
T3 construct: purchased Carna Biosciences
Protocol: as §1

HER2 = biological target: T4, HER2 (Homo sapiens, UniProt P04626); conditions: for inhibition at 0.1 µM: inhibitor concentration 0.1 μM
T4 construct: purchased Carna Biosciences
Protocol: as §1

PIM1 = biological target: T5, PIM1 (Homo sapiens, UniProt P11309); conditions: inhibitor concentration 0.1 μM
T5 construct: purchased Carna Biosciences
Protocol: as §1

KIT = biological target: T6, KIT (Homo sapiens, UniProt P10721); conditions: for inhibition at 0.1 µM: inhibitor concentration 0.1 μM
T6 construct: purchased Carna Biosciences
T6 sequence (P10721 26-976): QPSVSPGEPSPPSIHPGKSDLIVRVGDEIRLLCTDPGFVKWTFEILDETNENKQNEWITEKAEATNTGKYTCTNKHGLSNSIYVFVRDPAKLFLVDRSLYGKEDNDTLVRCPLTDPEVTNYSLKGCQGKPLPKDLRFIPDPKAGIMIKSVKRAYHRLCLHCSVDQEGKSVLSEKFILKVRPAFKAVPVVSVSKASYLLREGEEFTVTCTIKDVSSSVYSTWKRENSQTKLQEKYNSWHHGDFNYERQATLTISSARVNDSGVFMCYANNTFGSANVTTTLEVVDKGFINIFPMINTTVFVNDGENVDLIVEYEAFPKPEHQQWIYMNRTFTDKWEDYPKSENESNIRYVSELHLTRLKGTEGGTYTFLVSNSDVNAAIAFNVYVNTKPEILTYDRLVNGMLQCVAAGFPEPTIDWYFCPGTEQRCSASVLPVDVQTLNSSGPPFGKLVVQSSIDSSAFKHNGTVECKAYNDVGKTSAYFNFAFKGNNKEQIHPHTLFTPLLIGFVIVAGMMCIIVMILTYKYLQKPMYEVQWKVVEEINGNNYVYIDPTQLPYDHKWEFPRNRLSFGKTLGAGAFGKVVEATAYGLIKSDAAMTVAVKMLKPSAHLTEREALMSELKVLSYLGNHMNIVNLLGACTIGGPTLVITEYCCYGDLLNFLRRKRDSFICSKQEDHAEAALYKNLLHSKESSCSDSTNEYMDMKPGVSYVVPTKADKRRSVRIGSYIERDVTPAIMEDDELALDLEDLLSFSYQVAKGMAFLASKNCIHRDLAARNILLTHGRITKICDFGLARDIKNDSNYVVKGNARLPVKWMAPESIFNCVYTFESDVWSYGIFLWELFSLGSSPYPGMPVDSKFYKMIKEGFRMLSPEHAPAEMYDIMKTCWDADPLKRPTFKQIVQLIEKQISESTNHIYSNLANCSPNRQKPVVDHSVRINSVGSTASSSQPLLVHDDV
Protocol: as §1

RET = biological target: T7, RET (Homo sapiens, UniProt P07949); conditions: for inhibition at 0.1 µM: inhibitor concentration 0.1 μM
T7 construct: purchased Carna Biosciences
T7 sequence (P07949 29-1114): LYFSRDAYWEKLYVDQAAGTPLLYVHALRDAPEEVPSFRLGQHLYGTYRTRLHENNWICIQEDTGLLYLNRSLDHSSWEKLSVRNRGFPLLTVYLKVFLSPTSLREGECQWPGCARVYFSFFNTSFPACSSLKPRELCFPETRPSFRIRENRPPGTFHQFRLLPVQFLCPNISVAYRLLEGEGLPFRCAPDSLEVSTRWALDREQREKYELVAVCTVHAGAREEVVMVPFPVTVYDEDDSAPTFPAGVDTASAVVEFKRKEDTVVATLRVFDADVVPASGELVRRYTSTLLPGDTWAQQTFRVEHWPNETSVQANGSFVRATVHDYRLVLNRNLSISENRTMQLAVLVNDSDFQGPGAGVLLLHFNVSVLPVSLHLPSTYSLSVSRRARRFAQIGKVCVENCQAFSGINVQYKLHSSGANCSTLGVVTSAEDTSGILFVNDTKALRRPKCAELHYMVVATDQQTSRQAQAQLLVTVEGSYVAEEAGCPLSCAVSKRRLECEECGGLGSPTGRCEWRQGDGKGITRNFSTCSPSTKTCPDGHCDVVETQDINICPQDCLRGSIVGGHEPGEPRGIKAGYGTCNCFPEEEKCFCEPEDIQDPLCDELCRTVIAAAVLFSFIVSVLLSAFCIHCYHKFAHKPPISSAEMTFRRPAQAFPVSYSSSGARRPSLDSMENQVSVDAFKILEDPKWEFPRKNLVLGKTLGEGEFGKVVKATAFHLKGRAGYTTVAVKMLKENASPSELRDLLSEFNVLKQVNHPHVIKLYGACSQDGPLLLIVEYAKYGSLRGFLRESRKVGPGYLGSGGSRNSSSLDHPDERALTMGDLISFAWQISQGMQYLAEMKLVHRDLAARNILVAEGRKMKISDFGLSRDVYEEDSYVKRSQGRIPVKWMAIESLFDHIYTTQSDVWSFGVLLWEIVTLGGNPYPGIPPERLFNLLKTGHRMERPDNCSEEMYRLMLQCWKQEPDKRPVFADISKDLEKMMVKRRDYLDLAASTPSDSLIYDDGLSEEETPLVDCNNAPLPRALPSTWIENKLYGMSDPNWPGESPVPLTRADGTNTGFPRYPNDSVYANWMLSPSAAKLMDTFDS
Protocol: as §1

RON = biological target: T8, RON (Homo sapiens, UniProt Q04912); conditions: inhibitor concentration 0.1 μM
T8 construct: purchased Carna Biosciences
T8 sequence (Q04912 25-1400): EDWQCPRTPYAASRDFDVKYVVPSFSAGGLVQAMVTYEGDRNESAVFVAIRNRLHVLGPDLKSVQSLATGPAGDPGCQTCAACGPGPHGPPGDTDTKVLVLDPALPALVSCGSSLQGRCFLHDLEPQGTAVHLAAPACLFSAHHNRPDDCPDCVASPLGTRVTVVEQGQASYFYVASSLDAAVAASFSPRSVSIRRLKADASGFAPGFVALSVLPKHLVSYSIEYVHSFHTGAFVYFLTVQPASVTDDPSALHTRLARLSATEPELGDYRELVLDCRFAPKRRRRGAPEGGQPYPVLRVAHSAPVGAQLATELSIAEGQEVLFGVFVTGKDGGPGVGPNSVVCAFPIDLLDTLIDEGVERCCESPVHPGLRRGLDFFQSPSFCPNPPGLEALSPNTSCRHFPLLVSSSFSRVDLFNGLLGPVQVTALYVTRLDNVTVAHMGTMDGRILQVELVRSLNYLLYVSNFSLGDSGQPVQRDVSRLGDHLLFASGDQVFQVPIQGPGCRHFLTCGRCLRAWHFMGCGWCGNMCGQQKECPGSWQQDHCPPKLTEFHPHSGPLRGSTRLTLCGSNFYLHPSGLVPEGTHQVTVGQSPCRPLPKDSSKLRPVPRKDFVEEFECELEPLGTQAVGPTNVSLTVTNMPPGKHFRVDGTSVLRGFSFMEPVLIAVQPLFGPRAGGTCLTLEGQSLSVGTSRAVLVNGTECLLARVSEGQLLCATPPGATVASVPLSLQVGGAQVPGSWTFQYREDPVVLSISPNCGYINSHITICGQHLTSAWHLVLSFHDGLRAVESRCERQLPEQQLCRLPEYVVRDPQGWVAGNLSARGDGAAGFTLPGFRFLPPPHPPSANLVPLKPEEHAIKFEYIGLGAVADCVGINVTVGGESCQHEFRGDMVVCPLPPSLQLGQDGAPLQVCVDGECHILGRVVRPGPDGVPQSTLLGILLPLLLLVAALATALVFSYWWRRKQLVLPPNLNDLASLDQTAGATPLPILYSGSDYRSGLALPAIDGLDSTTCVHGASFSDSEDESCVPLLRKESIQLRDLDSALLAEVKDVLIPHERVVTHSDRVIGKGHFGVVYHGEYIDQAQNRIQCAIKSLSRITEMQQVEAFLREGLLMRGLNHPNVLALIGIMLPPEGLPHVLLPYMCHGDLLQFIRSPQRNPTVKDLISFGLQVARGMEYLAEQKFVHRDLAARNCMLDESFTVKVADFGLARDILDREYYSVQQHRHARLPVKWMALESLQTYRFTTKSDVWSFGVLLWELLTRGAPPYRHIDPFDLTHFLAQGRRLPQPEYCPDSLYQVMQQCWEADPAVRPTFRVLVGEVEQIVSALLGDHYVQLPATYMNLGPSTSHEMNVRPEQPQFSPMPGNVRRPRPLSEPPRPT
Protocol: as §1

JAK3 = biological target: T9, JAK3 (Homo sapiens, UniProt P52333); conditions: for inhibition at 0.1 µM: inhibitor concentration 0.1 μM
T9 construct: purchased Carna Biosciences
T9 sequence (P52333 1-1124): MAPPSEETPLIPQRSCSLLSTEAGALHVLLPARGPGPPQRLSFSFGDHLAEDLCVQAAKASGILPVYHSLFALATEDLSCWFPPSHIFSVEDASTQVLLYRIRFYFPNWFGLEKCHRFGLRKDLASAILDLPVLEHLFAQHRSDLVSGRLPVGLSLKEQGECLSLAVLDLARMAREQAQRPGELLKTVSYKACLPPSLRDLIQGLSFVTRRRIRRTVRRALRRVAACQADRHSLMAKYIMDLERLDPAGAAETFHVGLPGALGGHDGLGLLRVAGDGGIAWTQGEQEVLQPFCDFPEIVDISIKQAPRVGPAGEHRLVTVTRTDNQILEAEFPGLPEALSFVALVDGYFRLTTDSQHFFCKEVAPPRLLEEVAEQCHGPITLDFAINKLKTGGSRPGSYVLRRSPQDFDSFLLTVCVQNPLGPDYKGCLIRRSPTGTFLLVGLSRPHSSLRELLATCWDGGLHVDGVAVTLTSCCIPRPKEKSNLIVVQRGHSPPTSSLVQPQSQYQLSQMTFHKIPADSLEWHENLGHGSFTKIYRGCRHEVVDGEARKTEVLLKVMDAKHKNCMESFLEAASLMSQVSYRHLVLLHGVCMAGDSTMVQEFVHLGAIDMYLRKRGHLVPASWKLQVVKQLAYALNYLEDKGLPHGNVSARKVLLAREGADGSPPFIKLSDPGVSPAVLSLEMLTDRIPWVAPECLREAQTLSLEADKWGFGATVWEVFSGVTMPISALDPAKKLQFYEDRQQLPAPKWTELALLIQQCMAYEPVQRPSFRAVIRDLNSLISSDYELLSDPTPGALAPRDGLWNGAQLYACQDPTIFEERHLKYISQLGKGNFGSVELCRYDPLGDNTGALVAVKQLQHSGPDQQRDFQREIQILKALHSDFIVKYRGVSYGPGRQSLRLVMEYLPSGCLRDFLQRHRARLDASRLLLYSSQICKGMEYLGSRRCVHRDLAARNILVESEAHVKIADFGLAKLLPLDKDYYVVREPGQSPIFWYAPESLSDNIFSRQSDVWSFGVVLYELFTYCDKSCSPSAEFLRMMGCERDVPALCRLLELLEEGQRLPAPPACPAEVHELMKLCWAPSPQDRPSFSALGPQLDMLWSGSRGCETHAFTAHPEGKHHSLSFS
Protocol: as §1

BTK = biological target: T10, BTK (Homo sapiens, UniProt Q06187); conditions: for inhibition at 0.1 µM: inhibitor concentration 0.1 μM
T10 construct: purchased Carna Biosciences
Protocol: as §1

SRM = biological target: T11, SRM (Homo sapiens, UniProt Q9H3Y6); conditions: for inhibition at 0.1 µM: inhibitor concentration 0.1 μM
T11 construct: purchased Carna Biosciences
Protocol: as §1

KIT(V560G) = biological target: T12, KIT(V560G) (Homo sapiens, UniProt P10721, V560G); conditions: for inhibition at 0.1 µM: inhibitor concentration 0.1 μM
T12 construct: purchased Carna Biosciences
T12 sequence (P10721 26-976 V560G): as the sequence (P10721 26-976) above, with V535G counted along it
Protocol: as §1

JAK2 = biological target: T13, JAK2 (Homo sapiens, UniProt O60674); conditions: for inhibition at 0.1 µM: inhibitor concentration 0.1 μM
T13 construct: purchased Carna Biosciences
T13 sequence (O60674 whole entry): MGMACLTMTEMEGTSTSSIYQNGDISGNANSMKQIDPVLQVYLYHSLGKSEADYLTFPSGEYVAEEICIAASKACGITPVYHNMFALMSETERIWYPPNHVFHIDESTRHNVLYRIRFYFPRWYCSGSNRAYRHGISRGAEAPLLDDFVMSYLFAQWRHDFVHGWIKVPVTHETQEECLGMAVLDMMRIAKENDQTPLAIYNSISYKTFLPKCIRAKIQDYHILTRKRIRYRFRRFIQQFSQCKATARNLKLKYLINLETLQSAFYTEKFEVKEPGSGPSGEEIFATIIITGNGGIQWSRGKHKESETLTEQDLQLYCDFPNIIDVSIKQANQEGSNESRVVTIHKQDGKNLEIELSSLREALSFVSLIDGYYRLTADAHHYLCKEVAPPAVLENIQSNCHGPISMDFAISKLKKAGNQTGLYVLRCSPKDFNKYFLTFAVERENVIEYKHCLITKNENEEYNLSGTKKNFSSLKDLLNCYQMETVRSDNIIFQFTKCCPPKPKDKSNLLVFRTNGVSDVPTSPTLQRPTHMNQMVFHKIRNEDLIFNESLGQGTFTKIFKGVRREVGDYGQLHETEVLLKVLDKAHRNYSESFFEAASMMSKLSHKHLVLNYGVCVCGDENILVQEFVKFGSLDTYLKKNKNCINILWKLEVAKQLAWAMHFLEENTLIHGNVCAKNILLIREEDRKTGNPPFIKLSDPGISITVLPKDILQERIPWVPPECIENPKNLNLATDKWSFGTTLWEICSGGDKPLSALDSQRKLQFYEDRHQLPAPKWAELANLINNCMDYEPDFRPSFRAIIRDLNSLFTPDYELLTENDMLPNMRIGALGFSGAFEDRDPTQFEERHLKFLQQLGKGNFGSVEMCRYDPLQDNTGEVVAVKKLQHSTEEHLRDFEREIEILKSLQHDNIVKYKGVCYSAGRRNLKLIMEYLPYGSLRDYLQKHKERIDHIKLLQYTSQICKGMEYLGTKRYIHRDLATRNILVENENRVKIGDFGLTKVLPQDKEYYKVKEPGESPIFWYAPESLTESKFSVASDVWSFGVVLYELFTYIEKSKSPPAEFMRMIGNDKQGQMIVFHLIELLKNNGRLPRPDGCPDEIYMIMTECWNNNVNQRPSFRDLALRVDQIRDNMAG
Protocol: as §1

PIM3 = biological target: T14, PIM3 (Homo sapiens, UniProt Q86V86); conditions: inhibitor concentration 0.1 μM
T14 construct: purchased Carna Biosciences
Protocol: as §1

BRK = biological target: T15, BRK (Homo sapiens, UniProt Q13882); conditions: for inhibition at 0.1 µM: inhibitor concentration 0.1 μM
T15 construct: purchased Carna Biosciences
T15 sequence (Q13882 whole entry): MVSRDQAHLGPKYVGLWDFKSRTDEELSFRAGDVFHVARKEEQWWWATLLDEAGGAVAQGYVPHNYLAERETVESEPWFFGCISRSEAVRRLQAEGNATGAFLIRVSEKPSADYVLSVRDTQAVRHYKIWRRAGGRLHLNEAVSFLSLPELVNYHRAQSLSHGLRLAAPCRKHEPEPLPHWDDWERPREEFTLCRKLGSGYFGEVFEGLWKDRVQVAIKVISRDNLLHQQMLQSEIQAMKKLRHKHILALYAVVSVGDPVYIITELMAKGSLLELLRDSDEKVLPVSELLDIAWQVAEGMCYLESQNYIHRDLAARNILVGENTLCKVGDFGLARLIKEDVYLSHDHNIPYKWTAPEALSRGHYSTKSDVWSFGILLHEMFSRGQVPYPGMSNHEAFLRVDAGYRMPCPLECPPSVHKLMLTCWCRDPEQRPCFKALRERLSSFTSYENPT
Protocol: as §1

[1] = inhibitor concentration 0.01 μM, 0.01 µM
[2] = inhibitor concentration 0.01 μM

inhibition at 0.1 µM (BMX) [%] | inhibition at 0.1 µM (PKACα) [%] | inhibition at 0.1 µM (KDR) [%] | inhibition at 0.1 µM (HER2) [%] | inhibition at 0.1 µM (PIM1) [%] | inhibition at 0.1 µM (KIT) [%] | inhibition at 0.1 µM (RET) [%] | inhibition at 0.1 µM (RON) [%] | inhibition at 0.1 µM (JAK3) [%] | inhibition at 0.1 µM (BTK) [%] | inhibition at 0.1 µM (SRM) [%] | inhibition at 0.1 µM (KIT(V560G)) [%] | inhibition at 0.1 µM (JAK2) [%] | inhibition at 0.1 µM (PIM3) [%] | inhibition at 0.1 µM (BRK) [%] | Structure (SMILES) | other results
< 30 | < 30 | < 30 | < 30 | < 30 | < 30 | < 30 | < 30 | < 30 | < 30 | > 30 | < 30 | < 30 | < 30 | > 30 | O=C(c1c(F)ccc(NS(=O)(=O)CC(O)CO)c1F)c1c[nH]c2ncc(-c3ccc(Cl)cc3)cc12 (stereo not drawn) [200-73, N-[3-[5-(4-chlorophenyl)-lH-pyrrolo [2,3-b]pyridine-3-carbonyl]-2,4-difluorophenyl]-2,3-dihydroxypropane-l-sulfonamide] | 
 |  |  |  |  |  |  |  |  |  |  |  |  |  |  | C/C=C/S(=O)(=O)Nc1ccc(F)c(C(=O)c2c[nH]c3ncc(-c4ccc(Cl)cc4)cc23)c1F [200-93b] | KIT inhibition (KIT; [1]): <20%; JAK3 inhibition (JAK3; [1]): <20%; SRM inhibition (SRM; [1]): >20%; KIT(V560G) inhibition (KIT(V560G); [1]): <20%; JAK2 inhibition (JAK2; [1]): <20%; BRK inhibition (BRK; [1]): >20%
< 30 | < 30 | < 30 | < 30 | < 30 | < 30 | < 30 | < 30 | < 30 | < 30 | > 30 | < 30 | < 30 | < 30 | > 30 | CC(=O)CS(=O)(=O)Nc1ccc(F)c(C(=O)c2c[nH]c3ncc(-c4ccc(Cl)cc4)cc23)c1F [200-117] | 
 |  | > 50 |  |  | > 50 | < 50 |  | < 50 | < 50 | > 50 | > 50 | > 50 |  | > 50 | O=C(c1c(F)ccc(NS(=O)(=O)CCCO)c1F)c1c[nH]c2ncc(-c3ccc(Cl)cc3)cc12 [200-17, N-[3-[5-(4-chlorophenyl)-1H-pyrrolo[2,3-b]pyridine-3-carbonyl]-2,4-difluorophenyl]-3-hydroxypropane-1-sulfonamide] | inhibition at 0.01 µM (KDR; [2]): < 30%; inhibition at 1 µM (KDR; inhibitor concentration 1 μM): > 50%; inhibition at 1 µM (HER2; inhibitor concentration 1 μM): < 50%; inhibition at 0.01 µM (KIT; [2]): > 30%; inhibition at 1 µM (KIT; inhibitor concentration 1 μM): > 50%; inhibition at 0.01 µM (RET; [2]): < 30%; inhibition at 1 µM (RET; inhibitor concentration 1 μM): > 50%; inhibition at 0.01 µM (JAK3; [2]): < 30%; inhibition at 1 µM (JAK3; inhibitor concentration 1 μM): > 50%; inhibition at 0.01 µM (BTK; [2]): < 30%; inhibition at 1 µM (BTK; inhibitor concentration 1 μM): < 50%; inhibition at 0.01 µM (SRM; [2]): > 30%; inhibition at 1 µM (SRM; inhibitor concentration 1 μM): > 50%; inhibition at 0.01 µM (KIT(V560G); [2]): < 30%; inhibition at 1 µM (KIT(V560G); inhibitor concentration 1 μM): > 50%; inhibition at 0.01 µM (JAK2; [2]): < 30%; inhibition at 1 µM (JAK2; inhibitor concentration 1 μM): > 50%; inhibition at 0.01 µM (BRK; [2]): > 30%; inhibition at 1 µM (BRK; inhibitor concentration 1 μM): > 50%

Structure (SMILES) | inhibition at 0.1 µM (BMX) [%] | inhibition at 0.1 µM (PKACα) [%] | inhibition at 0.1 µM (KDR) [%] | inhibition at 0.1 µM (HER2) [%] | inhibition at 0.1 µM (PIM1) [%] | inhibition at 0.1 µM (KIT) [%] | inhibition at 0.1 µM (RET) [%] | inhibition at 0.1 µM (RON) [%] | inhibition at 0.1 µM (JAK3) [%] | inhibition at 0.1 µM (BTK) [%] | inhibition at 0.1 µM (SRM) [%] | inhibition at 0.1 µM (KIT(V560G)) [%] | inhibition at 0.1 µM (JAK2) [%] | inhibition at 0.1 µM (PIM3) [%] | inhibition at 0.1 µM (BRK) [%] | other results
CC(O)CS(=O)(=O)Nc1ccc(F)c(C(=O)c2c[nH]c3ncc(-c4ccc(Cl)cc4)cc23)c1F (stereo not shown) [200-115] | < 30 | < 30 | < 30 | < 30 | < 30 | < 30 | < 30 | < 30 | < 30 | < 30 | > 30 | < 30 | < 30 | < 30 | > 30 | 
